Source: patent US12643871B2, “Aryl formamide compound containing chiral sulfur oxide or salt thereof, preparation method, herbicidal composition and use thereof” (Qingdao Kingagroot Chemical Compound Co., Ltd., priority 2019, dated 2026)

Legend:
Abutilon theophrasti = assay: Weeding effect in post-emergence stage; format: in vivo; details: 250 g/ha; 2 leaf stage; 15 days after application; fresh weight control rate
Procedure, shortened: (§1)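 Post-emergence spray, 2-leaf stage; doses 500–15 g/ha; acetone + Tween 80 + methyl oleate EC (1.5 L/ha) as synergist. Greenhouse 15 d. Readout: fresh weight control rate graded levels 0–5 (5 = above 85%, 0 = below 5%); triplicate means.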

Amaranthus retroflexus = assay: Weeding effect in post-emergence stage; format: in vivo; details: 250 g/ha; 2 leaf stage; 15 days after application; fresh weight control rate
Procedure, shortened: as §1

Digitaria sanguinalis = assay: Weeding effect in post-emergence stage; format: in vivo; details: 250 g/ha; 2 leaf stage; 15 days after application; fresh weight control rate
Procedure, shortened: as §1

Echinochloa crusgali [1] = assay: Weeding effect in post-emergence stage; format: in vivo; details: 250 g/ha; 2 leaf stage; 15 days after application; fresh weight control rate
Procedure, shortened: as §1

Setaria viridis = assay: Weeding effect in post-emergence stage; format: in vivo; details: 250 g/ha; 2 leaf stage; 15 days after application; fresh weight control rate
Procedure, shortened: as §1

[2] = system: key weeds such as Digitaria sanguinalis, Leptochloa chinensis; assay: Comparison experiment (post-emergence, Tables 4-7), herbicidal activity on weeds not listed separately; format: in vivo; details: dose of 125, 60, 30, 15 g/ha
Procedure, shortened: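 Weeds sown in soil-filled pots, covered with 0.5-2 cm soil and grown in greenhouse; sprayed at 2-leaf stage (2 weeks after sowing) with compound in acetone/Tween 80 plus 1.5 liter/ha methyl oleate concentrate. Doses 500–15 g/ha; fresh weight control rated after 15 days, mean of three repeats.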

rice and other crops = assay: Comparison experiment (post-emergence, Tables 4-7), crop safety; format: in vivo; details: dose of 125, 60, 30, 15 g/ha
Procedure, shortened: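 Compounds are applied post-emergence by spray tower to plants at the 2 leaf stage, at rates from 15 to 500 g/ha with a methyl oleate synergist. Control is expressed on fresh weight, counted after 15 days in the greenhouse and averaged across three repetitions.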

Echinochloa crusgali [3] = assay: Weed control effect evaluation in rice field; format: in vivo; details: rice field pot, 14 days after treatment, ALS-inhibitor resistant weed from Heilongjiang
Source text: (§2) The activity level criteria for harmful plant damage (i.e., growth control rate) are as follows: • Level 5: growth control rate is above 85%; • Level 4: growth control rate is greater than or equal to 60% and less than 85%; • Level 3: growth control rate is greater than or equal to 40% and less than 60%; • Level 2: growth control rate is greater than or equal to 20% and less than 40%; • Level 1: growth control rate is greater than or equal to 5% and less than 20%; • Level 0: growth control rate is less than 5%.
(§3) Rice field soil was loaded into a 1/1,000,000 ha pot. The seeds of Echinochloa crusgali, Scirpus juncoides, Bidens tripartita, Sagittaria trifolia, Monochoria vaginalis and Leptochloa chinensis were sowed and gently covered with soil, then left to stand still in greenhouse in the state of 0.5-1 cm of water storage. The tuber of Sagittaria trifolia was planted in the next day or 2 days later. It was kept at 3-4 cm of water storage thereafter. The weeds were treated by dripping the WP or SC water diluents prepared according to the common preparation method of the compounds of the present invention with pipette homogeneously to achieve specified effective amount when Echinochloa crusgali, Scirpus juncoides, Bidens tripartita, Monochoria vaginalis and Leptochloa chinensis reached 0.5 leaf stage and Sagittaria trifolia reached the time point of primary leaf stage.
(§4) The fertility condition of Echinochloa crusgali, Scirpus juncoides, Bidens tripartita, Leptochloa chinensis, Sagittaria trifolia and Monochoria vaginalis 14 days after the treatment of the compound of the invention and the fertility condition of rice 21 days after the treatment of the compound of the invention respectively with the naked eye. Evaluate the weed control effect with 0-5 activity standard level. Many compounds show excellent activity and selectivity.

Leptochloa chinensis = assay: Weed control effect evaluation in rice field; format: in vivo; details: rice field pot, 14 days after treatment
Source text: as §2, §3, §4

Monochoria vaginalis = assay: Weed control effect evaluation in rice field; format: in vivo; details: rice field pot, 14 days after treatment, ALS-inhibitor resistant weed from Heilongjiang
Source text: as §2, §3, §4

Sagittaria trifolia = assay: Weed control effect evaluation in rice field; format: in vivo; details: rice field pot, 14 days after treatment, ALS-inhibitor resistant weed from Heilongjiang
Source text: as §2, §3, §4

Rice = assay: Transplanted rice safety evaluation; format: in vivo, rice (japonica rice/Indica rice); details: 60 g/ha; transplanted 3 leaf stage rice, 21 days after treatment
Source text: as §2
In addition, the rice field soil that loaded into the 1/1,000,000 ha pot was leveled to keep water storage at 3-4 cm depth. The 3 leaf stage rice (japonica rice/Indica rice) was transplanted at 3 cm of transplanting depth the next day. The compound of the present invention was treated by the same way after 5 days of transplantation.
as §4

CCCC[S@@+]([O-])c1c(C(F)(F)F)ccc(C(=O)Nc2nnc(C)o2)c1F [Compound 4]
weeding effect in post-emergence stage, activity level (growth control rate), Abutilon theophrasti (Abutilon theophrasti): 5 (Level 5: growth control rate is above 85%)
weeding effect in post-emergence stage, activity level (growth control rate), Amaranthus retroflexus (Amaranthus retroflexus): 5 (Level 5: growth control rate is above 85%)
weeding effect in post-emergence stage, activity level (growth control rate), Digitaria sanguinalis (Digitaria sanguinalis): 5 (Level 5: growth control rate is above 85%)
weeding effect in post-emergence stage, activity level (growth control rate), Echinochloa crusgali (Echinochloa crusgali [1]): 5 (Level 5: growth control rate is above 85%)
weeding effect in post-emergence stage, activity level (growth control rate), Setaria viridis (Setaria viridis): 5 (Level 5: growth control rate is above 85%)
activity to key weeds such as Digitaria sanguinalis, Leptochloa chinensis compared with the corresponding racemate or S configuration [2]: better activity
safety to rice and other crops compared with the corresponding racemate or S configuration (rice and other crops): higher safety
Herbicidal effects of compounds, Echinochloa crusgali, 0-5 activity standard level (Echinochloa crusgali [3]; 60 g/ha): 5 (Level 5: growth control rate is above 85%)
Herbicidal effects of compounds, Leptochloa chinensis, 0-5 activity standard level (Leptochloa chinensis; 60 g/ha): 5 (Level 5: growth control rate is above 85%)
Herbicidal effects of compounds, Monochoria vaginalis, 0-5 activity standard level (Monochoria vaginalis; 60 g/ha): 5 (Level 5: growth control rate is above 85%)
Herbicidal effects of compounds, Sagittaria trifolia, 0-5 activity standard level (Sagittaria trifolia; 60 g/ha): 5 (Level 5: growth control rate is above 85%)
Herbicidal effects of compounds, Rice, 0-5 activity standard level (Rice): 0 (Level 0: growth control rate is less than 5%)

Cc1nnc(NC(=O)c2ccc(C(F)(F)F)c([S@+]([O-])CC(C)C)c2F)o1 [Compound 6]
weeding effect in post-emergence stage, activity level (growth control rate), Abutilon theophrasti (Abutilon theophrasti): 5 (Level 5: growth control rate is above 85%)
weeding effect in post-emergence stage, activity level (growth control rate), Amaranthus retroflexus (Amaranthus retroflexus): 5 (Level 5: growth control rate is above 85%)
weeding effect in post-emergence stage, activity level (growth control rate), Digitaria sanguinalis (Digitaria sanguinalis): 5 (Level 5: growth control rate is above 85%)
weeding effect in post-emergence stage, activity level (growth control rate), Echinochloa crusgali (Echinochloa crusgali [1]): 5 (Level 5: growth control rate is above 85%)
weeding effect in post-emergence stage, activity level (growth control rate), Setaria viridis (Setaria viridis): 5 (Level 5: growth control rate is above 85%)
Herbicidal effects of compounds, Echinochloa crusgali, 0-5 activity standard level (Echinochloa crusgali [3]; 60 g/ha): 5 (Level 5: growth control rate is above 85%)
Herbicidal effects of compounds, Leptochloa chinensis, 0-5 activity standard level (Leptochloa chinensis; 60 g/ha): 5 (Level 5: growth control rate is above 85%)
Herbicidal effects of compounds, Monochoria vaginalis, 0-5 activity standard level (Monochoria vaginalis; 60 g/ha): 5 (Level 5: growth control rate is above 85%)
Herbicidal effects of compounds, Sagittaria trifolia, 0-5 activity standard level (Sagittaria trifolia; 60 g/ha): 5 (Level 5: growth control rate is above 85%)
Herbicidal effects of compounds, Rice, 0-5 activity standard level (Rice): 0 (Level 0: growth control rate is less than 5%)

Cc1nnc(NC(=O)c2ccc(C(F)(F)F)c([S@+]([O-])CCCF)c2F)o1 [Compound 26]
weeding effect in post-emergence stage, activity level (growth control rate), Abutilon theophrasti (Abutilon theophrasti): 5 (Level 5: growth control rate is above 85%)
weeding effect in post-emergence stage, activity level (growth control rate), Amaranthus retroflexus (Amaranthus retroflexus): 5 (Level 5: growth control rate is above 85%)
weeding effect in post-emergence stage, activity level (growth control rate), Digitaria sanguinalis (Digitaria sanguinalis): 5 (Level 5: growth control rate is above 85%)
weeding effect in post-emergence stage, activity level (growth control rate), Echinochloa crusgali (Echinochloa crusgali [1]): 5 (Level 5: growth control rate is above 85%)
weeding effect in post-emergence stage, activity level (growth control rate), Setaria viridis (Setaria viridis): 5 (Level 5: growth control rate is above 85%)
activity to key weeds such as Digitaria sanguinalis, Leptochloa chinensis compared with the corresponding racemate or S configuration [2]: better activity
safety to rice and other crops compared with the corresponding racemate or S configuration (rice and other crops): higher safety
Herbicidal effects of compounds, Echinochloa crusgali, 0-5 activity standard level (Echinochloa crusgali [3]; 60 g/ha): 5 (Level 5: growth control rate is above 85%)
Herbicidal effects of compounds, Leptochloa chinensis, 0-5 activity standard level (Leptochloa chinensis; 60 g/ha): 5 (Level 5: growth control rate is above 85%)
Herbicidal effects of compounds, Monochoria vaginalis, 0-5 activity standard level (Monochoria vaginalis; 60 g/ha): 5 (Level 5: growth control rate is above 85%)
Herbicidal effects of compounds, Sagittaria trifolia, 0-5 activity standard level (Sagittaria trifolia; 60 g/ha): 5 (Level 5: growth control rate is above 85%)
Herbicidal effects of compounds, Rice, 0-5 activity standard level (Rice): 0 (Level 0: growth control rate is less than 5%)

Cc1nnc(NC(=O)c2ccc(C(F)(F)F)c([S@+]([O-])CCCCl)c2F)o1 [Compound 37]
weeding effect in post-emergence stage, activity level (growth control rate), Abutilon theophrasti (Abutilon theophrasti): 5 (Level 5: growth control rate is above 85%)
weeding effect in post-emergence stage, activity level (growth control rate), Amaranthus retroflexus (Amaranthus retroflexus): 5 (Level 5: growth control rate is above 85%)
weeding effect in post-emergence stage, activity level (growth control rate), Digitaria sanguinalis (Digitaria sanguinalis): 5 (Level 5: growth control rate is above 85%)
weeding effect in post-emergence stage, activity level (growth control rate), Echinochloa crusgali (Echinochloa crusgali [1]): 5 (Level 5: growth control rate is above 85%)
weeding effect in post-emergence stage, activity level (growth control rate), Setaria viridis (Setaria viridis): 5 (Level 5: growth control rate is above 85%)
Herbicidal effects of compounds, Echinochloa crusgali, 0-5 activity standard level (Echinochloa crusgali [3]; 60 g/ha): 5 (Level 5: growth control rate is above 85%)
Herbicidal effects of compounds, Leptochloa chinensis, 0-5 activity standard level (Leptochloa chinensis; 60 g/ha): 5 (Level 5: growth control rate is above 85%)
Herbicidal effects of compounds, Monochoria vaginalis, 0-5 activity standard level (Monochoria vaginalis; 60 g/ha): 5 (Level 5: growth control rate is above 85%)
Herbicidal effects of compounds, Sagittaria trifolia, 0-5 activity standard level (Sagittaria trifolia; 60 g/ha): 5 (Level 5: growth control rate is above 85%)
Herbicidal effects of compounds, Rice, 0-5 activity standard level (Rice): 0 (Level 0: growth control rate is less than 5%)

Cc1nnc(NC(=O)c2ccc(C(F)(F)F)c([S@+]([O-])C3COC3)c2F)o1 [Compound 79]
weeding effect in post-emergence stage, activity level (growth control rate), Abutilon theophrasti (Abutilon theophrasti): 5 (Level 5: growth control rate is above 85%)
weeding effect in post-emergence stage, activity level (growth control rate), Amaranthus retroflexus (Amaranthus retroflexus): 5 (Level 5: growth control rate is above 85%)
weeding effect in post-emergence stage, activity level (growth control rate), Digitaria sanguinalis (Digitaria sanguinalis): 5 (Level 5: growth control rate is above 85%)
weeding effect in post-emergence stage, activity level (growth control rate), Echinochloa crusgali (Echinochloa crusgali [1]): 5 (Level 5: growth control rate is above 85%)
weeding effect in post-emergence stage, activity level (growth control rate), Setaria viridis (Setaria viridis): 5 (Level 5: growth control rate is above 85%)
Herbicidal effects of compounds, Echinochloa crusgali, 0-5 activity standard level (Echinochloa crusgali [3]; 60 g/ha): 5 (Level 5: growth control rate is above 85%)
Herbicidal effects of compounds, Leptochloa chinensis, 0-5 activity standard level (Leptochloa chinensis; 60 g/ha): 5 (Level 5: growth control rate is above 85%)
Herbicidal effects of compounds, Monochoria vaginalis, 0-5 activity standard level (Monochoria vaginalis; 60 g/ha): 5 (Level 5: growth control rate is above 85%)
Herbicidal effects of compounds, Sagittaria trifolia, 0-5 activity standard level (Sagittaria trifolia; 60 g/ha): 5 (Level 5: growth control rate is above 85%)
Herbicidal effects of compounds, Rice, 0-5 activity standard level (Rice): 0 (Level 0: growth control rate is less than 5%)

COc1cnc(OC)n2nc(NS(=O)(=O)c3c(OCC(F)F)cccc3C(F)(F)F)nc12 [Penoxsulam, reference compound]
Herbicidal effects of compounds, Echinochloa crusgali, 0-5 activity standard level (Echinochloa crusgali [3]; 30 g/ha): 0 (Level 0: growth control rate is less than 5%)
Herbicidal effects of compounds, Leptochloa chinensis, 0-5 activity standard level (Leptochloa chinensis; 30 g/ha): 1 (Level 1: growth control rate is greater than or equal to 5% and less than 20%)
Herbicidal effects of compounds, Monochoria vaginalis, 0-5 activity standard level (Monochoria vaginalis; 30 g/ha): 1 (Level 1: growth control rate is greater than or equal to 5% and less than 20%)
Herbicidal effects of compounds, Sagittaria trifolia, 0-5 activity standard level (Sagittaria trifolia; 30 g/ha): 0 (Level 0: growth control rate is less than 5%)
